Data reported in patent publication US20080119515A1, “Heterocyclic Kinase Inhibitors: Methods of Use and Synthesis” (priority 2003, published 2008).

Each compound was assayed against T1, ZAP-70 (Homo sapiens, UniProt P43403) (assay: DELFIA assay (ZAP-70 kinase, phosphorylation of biotinylated poly(glu,tyr))). Details: ZAP-70 DELFIA, class symbols; read-out: Activity (IC50 in vitro).
T1 sequence (P43403 1-619): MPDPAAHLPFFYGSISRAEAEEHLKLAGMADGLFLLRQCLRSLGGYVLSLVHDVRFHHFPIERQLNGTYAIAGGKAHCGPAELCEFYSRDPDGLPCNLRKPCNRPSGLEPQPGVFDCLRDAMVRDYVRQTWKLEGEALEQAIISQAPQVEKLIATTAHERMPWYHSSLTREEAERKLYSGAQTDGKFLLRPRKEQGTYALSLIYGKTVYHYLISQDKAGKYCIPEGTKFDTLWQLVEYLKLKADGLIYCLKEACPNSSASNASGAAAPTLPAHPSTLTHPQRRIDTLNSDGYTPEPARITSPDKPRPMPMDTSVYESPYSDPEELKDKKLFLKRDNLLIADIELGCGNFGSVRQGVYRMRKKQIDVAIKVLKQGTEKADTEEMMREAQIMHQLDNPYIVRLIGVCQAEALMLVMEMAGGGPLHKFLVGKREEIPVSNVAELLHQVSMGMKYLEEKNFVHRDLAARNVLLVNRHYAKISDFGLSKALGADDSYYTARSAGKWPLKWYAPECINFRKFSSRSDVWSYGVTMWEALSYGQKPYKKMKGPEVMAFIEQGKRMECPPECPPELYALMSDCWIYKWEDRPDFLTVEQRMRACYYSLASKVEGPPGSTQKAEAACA
Assay type: biochemical
How it was run: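 3.1 nM ZAP-70 pre-incubated 10 min at room temperature with compound ([…]) and 62.5 nM biotinylated poly(glu,tyr) in 62.5 mM Mops pH 7.0, 12.5 mM MgCl2, 12.5% glycerol, 6.25% DMSO (pre-incubation concentrations); ATP added from 5 mM stock, 30 min reaction, EDTA stop. Phosphorylation read by DELFIA europium anti-phosphotyrosine fluorescence (340/615).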

IC50 [µM] | Structure (SMILES)
> 10 | COc1ccccc1CNc1cc(C(=O)N2CCC[C@H]2CN2CCCC2)c2cc(-c3ccc(C#N)cc3)ccc2n1 [Compound 151]
1 to 10 | O=C(c1cc(NCc2ccc(C(F)(F)F)cc2)nc2ccc(-c3ccccc3F)cc12)N1CCC[C@H]1CN1CCCC1 [Compound 308]
> 10 | N#Cc1ccc(-c2ccc3nc(NCCc4ccccc4)cc(C(=O)N4CCC[C@H]4CN4CCCC4)c3c2)cc1 [Compound 170]
1 to 10 | O=C(c1cc(NCc2ccc(C(F)(F)F)cc2)nc2cc(-c3cc(F)cc(F)c3)ccc12)N1CCC[C@H]1CN1CCCC1 [Compound 121]
< 1 | CCC(Nc1cc(C(=O)N2CCC[C@H]2CN2CCCC2)c2cc(-c3ccc4c(c3)OCO4)ccc2n1)c1ccccc1 (some centres unmarked) [Compound 43]
< 1 | O=C(c1cc(Nc2ccc(F)cc2)nc2ccc(-c3ccc4c(c3)OCO4)cc12)N1CCC[C@H]1CN1CCCC1 [Compound 16]
> 10 | COc1cc(C(=O)N2CCC[C@H]2CN2CCCC2)cc(-c2ccc3c(c2)OCO3)n1 [Compound 6]
> 10 | O=C(c1cc(NCCN2CCOCC2)nc2ccc(-c3ccc4c(c3)OCO4)cc12)N1CCC[C@H]1CN1CCCC1 [Compound 26]
> 10 | Cc1c(-c2ccc3nc(NCc4ccc(C(F)(F)F)cc4)cc(C(=O)N4CCC[C@H]4CN4CCCC4)c3c2)sc2ccc(Cl)cc12 [Compound 353]
> 10 | N#Cc1ccc(-c2ccc3nc(NCc4ccccc4Br)cc(C(=O)N4CCC[C@H]4CN4CCCC4)c3c2)cc1 [Compound 181]
1 to 10 | CNC[C@@H]1CCCN1C(=O)c1cc(NCc2ccc(C(F)(F)F)cc2)nc2ccc(-c3ccc4c(c3)OCO4)cc12 [Compound 357]
< 1 | O=C(c1cc(Cc2ccc(Cl)cc2)nc2ccc(-c3ccc4c(c3)OCO4)cc12)N1CCC[C@H]1CN1CCCC1 [Compound 400]
> 10 | CC(Nc1cc(C(=O)N2CCC[C@H]2CN2CCCC2)c2cc(-c3ccc(C#N)cc3)ccc2n1)c1ccc(F)cc1 (some centres unmarked) [Compound 223]
> 10 | N#Cc1ccc(-c2ccc3nc(N4CCCC(c5cccc(C(F)(F)F)c5)C4)cc(C(=O)N4CCC[C@H]4CN4CCCC4)c3c2)cc1 (some centres unmarked) [Compound 269]
1 to 10 | COc1ccccc1CCNc1cc(C(=O)N2CCC[C@H]2CN2CCCC2)c2cc(-c3ccc(C#N)cc3)ccc2n1 [Compound 313]
1 to 10 | CCN(Cc1ccc(C)cc1)C(=O)c1cc(C(=O)N2CCC[C@H]2CN2CCCC2)c2cc(-c3ccc4c(c3)OCO4)ccc2n1 [Compound 143]
< 1 | O=C(c1cc(NCc2cccc(F)c2)nc2ccc(-c3ccc4c(c3)OCO4)cc12)N1CCC[C@H]1CN1CCCC1 [Compound 31]
1 to 10 | O=C(c1cc(NCc2ccc(C(F)(F)F)cc2)nc2ccc(-c3ccc4c(c3)OCO4)cc12)N1CC2CC2[C@H]1CN1CCCC1 (some centres unmarked) [Compound 145]
< 1 | O=C(c1cc(Nc2ccc(Oc3ccccc3)cc2)nc2ccc(-c3ccc4c(c3)OCO4)cc12)N1CCC[C@H]1CN1CCCC1 [Compound 51]
1 to 10 | O=C(c1cc(N2CCC(N3CCCC3)CC2)nc2ccc(-c3ccc4c(c3)OCO4)cc12)N1CCC[C@H]1CN1CCCC1 [Compound 64]
> 10 | O=C(c1cc(NCc2ccc(C(F)(F)F)cc2)ncc1Cl)N1CCC[C@H]1CN1CCCC1 [Compound 114]
> 10 | CN(CCc1ccccc1)c1cc(C(=O)N2CCC[C@H]2CN2CCCC2)cc(Cc2ccccc2)n1 [Compound 369]

The remaining lines, values behind:

Structure (SMILES) | IC50 [µM]
N#Cc1ccc(-c2ccc3nc(N(CCO)Cc4ccccc4)cc(C(=O)N4CCC[C@H]4CN4CCCC4)c3c2)cc1 [Compound 212] | > 10
O=C(c1cc(NCc2ccc(C(F)(F)F)cc2)nc2ccc(-c3cccc(C(F)(F)F)c3)cc12)N1CCC[C@H]1CN1CCCC1 [Compound 295] | 1 to 10
O=C(c1cc(NCc2ccccc2)nc2ccc(-c3ccc4c(c3)OCO4)cc12)N1CCC[C@H]1CN1CCOCC1 [Compound 83] | 1 to 10
O=C(c1cc(NCc2ccc(C(F)(F)F)cc2)nc2ccc(CCc3cccc(C(F)(F)F)c3)cc12)N1CCC[C@H]1CN1CCCC1 [Compound 289] | 1 to 10
O=C(c1cc(N2CCC[C@H]2CN2CCCC2)nc2ccc(-c3ccc4c(c3)OCO4)cc12)N1CCC[C@H]1CN1CCCC1 [Compound 89] | 1 to 10
N#Cc1ccc(-c2ccc3nc(NCCc4cccc(Cl)c4)cc(C(=O)N4CCC[C@H]4CN4CCCC4)c3c2)cc1 [Compound 196] | > 10
Cc1ccc(CCNc2cc(C(=O)N3CCC[C@H]3CN3CCCC3)c3cc(-c4ccc(C#N)cc4)ccc3n2)cc1 [Compound 173] | > 10
O=C(c1cc(Sc2cccc(C(F)(F)F)c2)nc2ccc(-c3ccc4c(c3)OCO4)cc12)N1CCC[C@H]1CN1CCCC1 [Compound 324] | < 1
O=C(c1cc(Cc2ccccc2)nc2ccc(-c3ccc4c(c3)OCO4)cc12)N1CCC[C@H]1CN1CCCC1 [Compound 25] | < 1
O=C(c1cc(Nc2ccc3c(c2)OCO3)nc2ccccc12)N1CCC[C@H]1CN1CCCC1 [Compound 8] | > 10
O=C(c1cc(Cc2ccc(N3CCN(c4ccncc4)CC3)cc2)nc2ccc(-c3ccc4c(c3)OCO4)cc12)N1CCCC1CN1CCCC1 (centres unmarked) [Compound 440] | < 1
O=C(c1cc(NCc2ccc(Cl)cc2)nc2ccc(-c3ccc4c(c3)OCO4)cc12)N1CCC[C@H]1CN1CCCC1 [Compound 35] | < 1
FC(F)(F)c1ccc(CNc2cc(N3CCC[C@H]3CN3CCCC3)c3cc(-c4ccc5c(c4)OCO5)ccc3n2)cc1 [Compound 103] | 1 to 10
O=C(c1cc(NCc2ccc(Cl)cc2)nc2ccc(-c3ccc4c(c3)OCO4)cc12)N1CC[C@H]1CN1CCCC1 [Compound 374] | 1 to 10
N#Cc1ccc(-c2ccc3nc(N(CCCCO)Cc4ccccc4)cc(C(=O)N4CCC[C@H]4CN4CCCC4)c3c2)cc1 [Compound 247] | > 10
N#Cc1ccc(-c2ccc3nc(NCc4csc5ccc(Cl)cc45)cc(C(=O)N4CCC[C@H]4CN4CCCC4)c3c2)cc1 [Compound 242] | > 10
N#Cc1ccc(-c2ccc3nc(NCc4cc(F)cc(C(F)(F)F)c4)cc(C(=O)N4CCC[C@H]4CN4CCCC4)c3c2)cc1 [Compound 195] | > 10
Cc1ccc(CCc2cc(C(=O)N3CCC[C@H]3CN3CCCC3)c3cc(-c4ccc5c(c4)OCO5)ccc3n2)cc1 [Compound 392] | < 1
N#Cc1ccc(-c2ccc3nc(N4CCSC(c5ccccc5)C4)cc(C(=O)N4CCC[C@H]4CN4CCCC4)c3c2)cc1 (some centres unmarked) [Compound 256] | > 10
O=C(c1cc(NCc2ccc(C(F)(F)F)cc2)nc2ccc(-c3ccccn3)cc12)N1CCC[C@H]1CN1CCCC1 [Compound 333] | > 10
N#Cc1ccc(-c2ccc3nc(NCCc4ccc(Br)cc4)cc(C(=O)N4CCC[C@H]4CN4CCCC4)c3c2)cc1 [Compound 243] | > 10
N#Cc1ccc(-c2ccc3nc(CCc4ccc(F)cc4)cc(C(=O)N4CCC[C@H]4CN4CCCC4)c3c2)cc1 [Compound 388] | 1 to 10
N#Cc1ccc(-c2ccc3nc(NC(CO)Cc4ccccc4)cc(C(=O)N4CCC[C@H]4CN4CCCC4)c3c2)cc1 (some centres unmarked) [Compound 315] | < 1
CN(Cc1ccc(Cl)c(Cl)c1)c1cc(C(=O)N2CCC[C@H]2CN2CCCC2)c2cc(-c3ccc(C#N)cc3)ccc2n1 [Compound 248] | > 10
CN(Cc1ccccc1)c1cc(C(=O)N2CCC[C@H]2CN2CCCC2)c2cc(Oc3ccccc3)ccc2n1 [Compound 129] | 1 to 10
